Data as given in US20260285850A1, “SUBSTITUTED OXAZOLIDINONES AND IMIDAZOLINONES AS HERBICIDES” (FMC CORPORATION, priority 2023, published 2026).

Key:
Type in all cases: in vivo
[1] = system: barnyardgrass (Echinochloa crus-galli); test: Test A preemergence soil spray, visual injury rating 0-100; conditions: 10 days
Method in brief: (§1)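 Grow plants in loam soil blended with sand. Apply formulated compound (non-phytotoxic solvent, surfactant) as a directed soil spray before emergence, or to plants at the one- to two-leaf stage after emergence. Hold in greenhouse 10 days, then rate injury visually versus untreated controls on a 0-100 scale.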

[2] = system: blackgrass (Alopecurus myosuroides); test: as above; conditions: 10 days
Method in brief: as §1

[3] = system: corn (Zea mays); test: as above; conditions: 10 days
Method in brief: as §1

[4] = system: green foxtail (Setaria viridis); test: as above; conditions: 10 days
Method in brief: as §1

[5] = system: kochia (Bassia scoparia); test: as above; conditions: 10 days
Method in brief: as §1

[6] = system: oat, wild (wild oat, Avena fatua); test: as above; conditions: 10 days
Method in brief: as §1

[7] = system: palmer (palmer amaranth, palmer pigweed, Amaranthus palmeri); test: as above; conditions: 10 days
Method in brief: as §1

[8] = system: ragweed (common ragweed, Ambrosia artemisiifolia); test: as above; conditions: 10 days
Method in brief: as §1

[9] = system: ryegrass, Italian (italian ryegrass, Lolium multiflorum); test: as above; conditions: 10 days
Method in brief: as §1

[10] = system: soybean (Glycine max); test: as above; conditions: 10 days
Method in brief: as §1

[11] = system: wheat (Triticum aestivum); test: as above; conditions: 10 days
Method in brief: as §1

[12] = system: barnyardgrass (Echinochloa crus-galli); test: Test A postemergence application, visual injury rating 0-100
Method in brief: as §1

[13] = system: blackgrass (Alopecurus myosuroides); test: as above
Method in brief: as §1

[14] = system: corn (Zea mays); test: as above
Method in brief: as §1

[15] = system: galium (catchweed bedstraw, Galium aparine); test: as above
Method in brief: as §1

[16] = system: green foxtail (Setaria viridis); test: as above
Method in brief: as §1

[17] = system: horseweed (Erigeron canadensis); test: as above
Method in brief: as §1

[18] = system: kochia (Bassia scoparia); test: as above
Method in brief: as §1

[19] = system: oat, wild (wild oat, Avena fatua); test: as above
Method in brief: as §1

[20] = system: ragweed (common ragweed, Ambrosia artemisiifolia); test: as above
Method in brief: as §1

[21] = system: ryegrass, Italian (italian ryegrass, Lolium multiflorum); test: as above
Method in brief: as §1

[22] = system: soybean (Glycine max); test: as above
Method in brief: as §1

[23] = system: wheat (Triticum aestivum); test: as above
Method in brief: as §1

[24] = system: barnyardgrass (Echinochloa crusgalli); test: Test B flooded paddy test, visual plant response rating 0-100; conditions: 250 g ai/ha, Flood, applied to paddy water, evaluated after 13 days
Method in brief: (§2)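 Plants were grown to the 2-leaf stage, then pots were flooded to 3 cm above the soil and test compounds were applied directly into the paddy water. Water depth was held there throughout; after 13 days in a greenhouse, injury was scored visually against untreated controls.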

[25] = system: ducksalad (Heteranthera limosa); test: as above; conditions: 250 g ai/ha, Flood, applied to paddy water, evaluated after 13 days
Method in brief: as §2

[26] = system: rice (Oryza sativa); test: as above; conditions: 250 g ai/ha, Flood, applied to paddy water, evaluated after 13 days
Method in brief: as §2

[27] = system: sedge, umbrella (small-flower umbrella sedge, Cyperus difformis); test: as above; conditions: 250 g ai/ha, Flood, applied to paddy water, evaluated after 13 days
Method in brief: as §2

[28] = 62 g ai/ha, 0 = no effect, 100 = complete control
[29] = 62 g ai/ha, postemergence, 10 days, 0 = no effect, 100 = complete control
[30] = Postemergence, 16 g ai/ha, greenhouse 10 days, 0 no effect, 100 complete control

For `COC(=O)C1CC(NC(=O)C2(C(F)(F)F)CN(c3cc(F)cc(F)c3)C(=O)O2)C2CC12` (centres unmarked) [Compound 177], the “Barnyardgrass plant response rating” value ([1]; 16 g ai/ha, 0 to 100 scale) was 60, the “Barnyardgrass plant response rating (0-100)” value [1, 28] was 90 and the “Blackgrass plant response rating” value ([2]; 16 g ai/ha, 0 to 100 scale) was 60. The “Blackgrass plant response rating (0-100)” value [2, 28] was 90, the “Corn plant response rating” value ([3]; 16 g ai/ha, 0 to 100 scale) was 10 and the “Corn plant response rating (0-100)” value [3, 28] was 10. For the same molecule, the “Foxtail, Green plant response rating” value ([4]; 16 g ai/ha, 0 to 100 scale) was 90, the “Foxtail, Green plant response rating (0-100)” value [4, 28] was 100 and the “Kochia plant response rating” value ([5]; 16 g ai/ha, 0 to 100 scale) was 0. For the same molecule, the “Kochia plant response rating (0-100)” value [5, 28] was 80, the “Oat, Wild plant response rating” value ([6]; 16 g ai/ha, 0 to 100 scale) was 0 and the “Oat, Wild plant response rating (0-100)” value [6, 28] was 90. The “Pigweed, Palmer plant response rating” value ([7]; 16 g ai/ha, 0 to 100 scale) was 90, the “Pigweed, Palmer plant response rating (0-100)” value [7, 28] was 100 and the “Ragweed plant response rating” value ([8]; 16 g ai/ha, 0 to 100 scale) was 0. The “Ragweed plant response rating (0-100)” value [8, 28] was 20, the “Ryegrass, Italian plant response rating” value ([9]; 16 g ai/ha, 0 to 100 scale) was 80 and the “Ryegrass, Italian plant response rating (0-100)” value [9, 28] was 90. For the same molecule, the “Soybean plant response rating” value ([10]; 16 g ai/ha, 0 to 100 scale) was 0, the “Soybean plant response rating (0-100)” value [10, 28] was 0 and the “Wheat plant response rating” value ([11]; 16 g ai/ha, 0 to 100 scale) was 40. The “Wheat plant response rating (0-100)” value [11, 28] was 100, the “Barnyardgrass plant response rating (0-100)” value [12, 29] was 80 and the “Barnyardgrass plant response rating (0 to 100 scale)” value [12, 30] was 70. The “Blackgrass plant response rating (0-100)” value [13, 29] was 90, the “Blackgrass plant response rating (0 to 100 scale)” value [13, 30] was 80 and the “Corn plant response rating (0-100)” value [14, 29] was 90. For the same molecule, the “Corn plant response rating (0 to 100 scale)” value [14, 30] was 30, the “Galium plant response rating (0-100)” value [15, 29] was 80 and the “Galium plant response rating (0 to 100 scale)” value [15, 30] was 90. The “Foxtail, Green plant response rating (0-100)” value [16, 29] was 90, the “Foxtail, Green plant response rating (0 to 100 scale)” value [16, 30] was 30 and the “Horseweed plant response rating (0-100)” value [17, 29] was 10. The “Horseweed plant response rating (0 to 100 scale)” value [17, 30] was 0, the “Kochia plant response rating (0-100)” value [18, 29] was 70 and the “Kochia plant response rating (0 to 100 scale)” value [18, 30] was 30. For the same molecule, the “Oat, Wild plant response rating (0-100)” value [19, 29] was 90, the “Oat, Wild plant response rating (0 to 100 scale)” value [19, 30] was 70 and the “Ragweed plant response rating (0-100)” value [20, 29] was 20. For the same molecule, the “Ragweed plant response rating (0 to 100 scale)” value [20, 30] was 0, the “Ryegrass, Italian plant response rating (0-100)” value [21, 29] was 80 and the “Ryegrass, Italian plant response rating (0 to 100 scale)” value [21, 30] was 70. The “Soybean plant response rating (0-100)” value [22, 29] was 50, the “Soybean plant response rating (0 to 100 scale)” value [22, 30] was 20 and the “Wheat plant response rating (0-100)” value [23, 29] was 90. The “Wheat plant response rating (0 to 100 scale)” value [23, 30] was 80, the “Plant response rating, Barnyardgrass (0 to 100 scale, 0 is no effect and 100 is complete control)” value [24] was 90 and the “Plant response rating, Ducksalad (0 to 100 scale, 0 is no effect and 100 is complete control)” value [25] was 75. The “Plant response rating, Rice (0 to 100 scale, 0 is no effect and 100 is complete control)” value [26] was 90 and the “Plant response rating, Sedge, Umbrella (0 to 100 scale, 0 is no effect and 100 is complete control)” value [27] was 80.
